Assay results as given in ChEMBL document CHEMBL5665443, “Enzyme Inhibitor Single Concentration assay results for EUbOPEN Chemogenomics Library” (2024).

Experiments:
[1] = biological target: T1, Endonuclease 8-like 2 (Homo sapiens) (UniProt Q969S2); settings: Compound Concentration 10.0 uM, Hit No;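 further: fluorescence at 594 nm reports NEIL2 cutting and release of a quenched double-stranded DNA oligo substrate, reduced signal read as inhibition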
T1 sequence (whole entry): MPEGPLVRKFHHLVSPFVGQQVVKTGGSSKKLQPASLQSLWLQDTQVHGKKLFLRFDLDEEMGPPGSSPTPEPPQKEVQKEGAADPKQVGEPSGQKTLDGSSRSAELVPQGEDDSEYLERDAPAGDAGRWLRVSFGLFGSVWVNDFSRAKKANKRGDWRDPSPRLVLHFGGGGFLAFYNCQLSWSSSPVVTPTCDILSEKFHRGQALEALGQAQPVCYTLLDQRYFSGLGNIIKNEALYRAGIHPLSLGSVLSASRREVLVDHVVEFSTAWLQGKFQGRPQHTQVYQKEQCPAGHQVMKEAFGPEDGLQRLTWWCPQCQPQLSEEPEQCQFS
Description: Inhibition of NEIL2 by quantifying inhibition of NEIL2-mediated cleavage and dissociation of quenched duplex DNA oligonucleotides, measured as fluorescence at 594 nm.

[2] = biological target: Endonuclease 8-like 1 (Homo sapiens) (UniProt Q96FI4); settings: Compound Concentration 10.0 uM, Hit No;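 further: fluorescence at 594 nm from quenched duplex DNA oligonucleotides released by NEIL1 cleavage and strand separation, reported as reduction of this enzyme activity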
Description: Inhibition of NEIL1 by quantifying inhibition of NEIL1-mediated cleavage and dissociation of quenched duplex DNA oligonucleotides, measured as fluorescence at 594 nm.

[3] = biological target: DNA-3-methyladenine glycosylase (Homo sapiens) (UniProt P29372); settings: Compound Concentration 10.0 uM, Hit No;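 further: enzyme assay where MPG cuts a quenched duplex DNA oligonucleotide probe, paired with APE1 for strand incision and turnover, read as fluorescence at 594 nm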
Description: Inhibition of MPG by quantifying inhibition of MPG-mediated cleavage and dissociation of quenched duplex DNA oligonucleotides, measured as fluorescence at 594 nm. To generate a functional strand incision and increase turn-over this assay is coupled to APE1.

[4] = biological target: T2, Single-strand selective monofunctional uracil DNA glycosylase (Homo sapiens) (UniProt Q53HV7); settings: Compound Concentration 10.0 uM, Hit No;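 further: enzymatic SMUG1 assay coupled with APE1, reading fluorescence at 594 nm released when a quenched double-stranded DNA oligonucleotide substrate is cleaved and separated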
T2 sequence (whole entry): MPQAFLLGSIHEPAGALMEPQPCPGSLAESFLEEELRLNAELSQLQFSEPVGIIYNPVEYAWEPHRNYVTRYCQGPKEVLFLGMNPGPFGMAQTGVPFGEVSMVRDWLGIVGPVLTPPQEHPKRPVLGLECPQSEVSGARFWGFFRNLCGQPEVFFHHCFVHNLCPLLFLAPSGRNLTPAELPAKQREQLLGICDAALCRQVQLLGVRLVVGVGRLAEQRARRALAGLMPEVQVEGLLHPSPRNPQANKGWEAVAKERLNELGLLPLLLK
Description: Inhibition of SMUG1 by quantifying inhibition of SMUG1-mediated cleavage and dissociation of quenched duplex DNA oligonucleotides, measured as fluorescence at 594 nm. To generate a functional strand incision and increase turn-over this assay is coupled to APE1.

[5] = biological target: Methyl-CpG-binding domain protein 4 (Homo sapiens) (UniProt O95243); settings: Compound Concentration 10.0 uM, Hit No;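 further: MBD4 activity read as fluorescence at 594 nm from cleavage and release of a quenched duplex DNA oligonucleotide, with APE1 coupled to incise the strand and raise turnover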
Description: Inhibition of MBD4 by quantifying inhibition of MBD4-mediated cleavage and dissociation of quenched duplex DNA oligonucleotides, measured as fluorescence at 594 nm. To generate a functional strand incision and increase turn-over this assay is coupled to APE1.

[6] = biological target: T3, Adenine DNA glycosylase (Homo sapiens) (UniProt Q9UIF7); settings: Compound Concentration 10.0 uM, Hit No;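 further: human MUTYH activity read as 594 nm fluorescence from cleavage and release of a quenched DNA duplex, coupled with APE1 for strand incision, lower signal meaning inhibition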
T3 sequence (whole entry): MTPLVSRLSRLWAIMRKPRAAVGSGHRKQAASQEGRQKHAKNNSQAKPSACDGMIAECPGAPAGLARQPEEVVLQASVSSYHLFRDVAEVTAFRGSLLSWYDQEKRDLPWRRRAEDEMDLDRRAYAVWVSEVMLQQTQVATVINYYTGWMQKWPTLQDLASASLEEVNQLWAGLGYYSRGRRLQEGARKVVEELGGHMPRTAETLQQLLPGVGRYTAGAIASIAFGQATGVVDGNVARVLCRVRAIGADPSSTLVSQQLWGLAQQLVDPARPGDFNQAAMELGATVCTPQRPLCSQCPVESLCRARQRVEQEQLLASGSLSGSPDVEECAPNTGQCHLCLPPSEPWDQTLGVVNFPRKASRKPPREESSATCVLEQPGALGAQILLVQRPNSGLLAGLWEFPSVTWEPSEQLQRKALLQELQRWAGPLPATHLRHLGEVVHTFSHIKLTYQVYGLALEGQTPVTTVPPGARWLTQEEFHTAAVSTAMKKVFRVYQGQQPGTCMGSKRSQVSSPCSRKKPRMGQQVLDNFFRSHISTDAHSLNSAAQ
Description: Inhibition of MUTYH by quantifying inhibition of MUTYH-mediated cleavage and dissociation of quenched duplex DNA oligonucleotides, measured as fluorescence at 594 nm. To generate a functional strand incision and increase turn-over this assay is coupled to APE1.

[7] = biological target: G/T mismatch-specific thymine DNA glycosylase (Homo sapiens) (UniProt Q13569); settings: Compound Concentration 10.0 uM, Hit No;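 further: human TDG cleavage of quenched duplex DNA oligonucleotides coupled to APE1, strand release read as fluorescence at 594 nm, inhibition of TDG activity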
Description: Inhibition of TDG by quantifying inhibition of TDG-mediated cleavage and dissociation of quenched duplex DNA oligonucleotides, measured as fluorescence at 594 nm. To generate a functional strand incision and increase turn-over this assay is coupled to APE1.

[8] = biological target: Uracil-DNA glycosylase (Homo sapiens) (UniProt P13051); settings: Compound Concentration 10.0 uM, Hit No;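 further: UNG excision on a quenched double-stranded DNA oligo probe, with APE1 added for strand incision and turnover, read as fluorescence at 594 nm as strands separate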
Description: Inhibition of UNG by quantifying inhibition of UNG-mediated cleavage and dissociation of quenched duplex DNA oligonucleotides, measured as fluorescence at 594 nm. To generate a functional strand incision and increase turn-over this assay is coupled to APE1.

[9] = biological target: N-glycosylase/DNA lyase (Homo sapiens) (UniProt O15527); settings: Compound Concentration 10.0 uM;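 further: OGG1 cleavage of a quenched duplex DNA oligonucleotide, coupled to APE1 for strand incision, read as fluorescence at 594 nm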
Chain of N-glycosylase/DNA lyase (Homo sapiens) (O15527 whole entry): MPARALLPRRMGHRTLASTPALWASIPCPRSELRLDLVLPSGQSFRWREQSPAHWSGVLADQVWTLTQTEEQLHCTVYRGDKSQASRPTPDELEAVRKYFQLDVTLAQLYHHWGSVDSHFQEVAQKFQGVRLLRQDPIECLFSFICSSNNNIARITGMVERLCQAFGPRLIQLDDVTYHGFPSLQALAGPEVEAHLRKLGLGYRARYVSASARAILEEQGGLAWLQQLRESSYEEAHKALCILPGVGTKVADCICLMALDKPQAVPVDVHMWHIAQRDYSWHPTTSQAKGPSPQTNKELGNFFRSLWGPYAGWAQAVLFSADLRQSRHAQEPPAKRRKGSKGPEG
Description: Inhibition of OGG1 by quantifying inhibition of OGG1-mediated cleavage and dissociation of quenched duplex DNA oligonucleotides, measured as fluorescence at 594 nm. To generate a functional strand incision and increase turn-over this assay is coupled to APE1.

Chain of Endonuclease 8-like 1 (Homo sapiens) (Q96FI4 whole entry): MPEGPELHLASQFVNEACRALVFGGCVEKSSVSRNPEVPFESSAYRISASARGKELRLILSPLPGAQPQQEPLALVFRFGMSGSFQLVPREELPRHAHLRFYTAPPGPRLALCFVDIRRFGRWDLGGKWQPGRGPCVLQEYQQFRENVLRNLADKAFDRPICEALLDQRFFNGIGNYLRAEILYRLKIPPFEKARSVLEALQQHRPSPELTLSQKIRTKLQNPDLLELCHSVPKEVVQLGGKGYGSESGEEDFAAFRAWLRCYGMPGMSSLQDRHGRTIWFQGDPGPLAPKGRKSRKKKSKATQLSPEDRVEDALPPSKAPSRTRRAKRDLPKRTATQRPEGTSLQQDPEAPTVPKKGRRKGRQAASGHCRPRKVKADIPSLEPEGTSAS
Chain of DNA-3-methyladenine glycosylase (Homo sapiens) (P29372 whole entry): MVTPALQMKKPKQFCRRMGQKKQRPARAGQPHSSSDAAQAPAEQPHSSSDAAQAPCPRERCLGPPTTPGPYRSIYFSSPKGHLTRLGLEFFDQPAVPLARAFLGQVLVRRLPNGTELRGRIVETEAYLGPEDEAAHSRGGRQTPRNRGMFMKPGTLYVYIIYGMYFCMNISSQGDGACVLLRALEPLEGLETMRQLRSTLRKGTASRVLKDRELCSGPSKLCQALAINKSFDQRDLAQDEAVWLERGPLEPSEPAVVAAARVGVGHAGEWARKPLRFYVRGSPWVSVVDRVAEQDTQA
Chain of Uracil-DNA glycosylase (Homo sapiens) (P13051 whole entry): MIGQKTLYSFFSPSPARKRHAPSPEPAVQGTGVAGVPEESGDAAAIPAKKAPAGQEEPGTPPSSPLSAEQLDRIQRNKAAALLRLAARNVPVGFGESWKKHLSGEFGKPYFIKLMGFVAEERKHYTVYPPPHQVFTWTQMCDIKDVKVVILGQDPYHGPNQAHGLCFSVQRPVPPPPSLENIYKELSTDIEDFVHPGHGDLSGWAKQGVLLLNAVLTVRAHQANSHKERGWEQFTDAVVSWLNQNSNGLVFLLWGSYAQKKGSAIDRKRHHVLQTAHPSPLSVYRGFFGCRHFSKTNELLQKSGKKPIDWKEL
Chain of G/T mismatch-specific thymine DNA glycosylase (Homo sapiens) (Q13569 whole entry): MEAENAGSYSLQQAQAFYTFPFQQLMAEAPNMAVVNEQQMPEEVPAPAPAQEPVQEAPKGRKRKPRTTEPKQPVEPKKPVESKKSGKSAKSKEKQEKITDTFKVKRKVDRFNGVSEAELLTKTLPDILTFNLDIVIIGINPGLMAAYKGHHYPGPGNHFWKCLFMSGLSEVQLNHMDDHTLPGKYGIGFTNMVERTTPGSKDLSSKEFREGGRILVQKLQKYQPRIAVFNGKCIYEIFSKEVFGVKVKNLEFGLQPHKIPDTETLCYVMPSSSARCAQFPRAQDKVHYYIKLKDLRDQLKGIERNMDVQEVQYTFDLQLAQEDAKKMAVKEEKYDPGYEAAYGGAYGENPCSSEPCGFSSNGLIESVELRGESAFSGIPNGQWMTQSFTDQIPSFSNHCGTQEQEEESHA
Chain of Methyl-CpG-binding domain protein 4 (Homo sapiens) (O95243 whole entry, the tested form may be a part): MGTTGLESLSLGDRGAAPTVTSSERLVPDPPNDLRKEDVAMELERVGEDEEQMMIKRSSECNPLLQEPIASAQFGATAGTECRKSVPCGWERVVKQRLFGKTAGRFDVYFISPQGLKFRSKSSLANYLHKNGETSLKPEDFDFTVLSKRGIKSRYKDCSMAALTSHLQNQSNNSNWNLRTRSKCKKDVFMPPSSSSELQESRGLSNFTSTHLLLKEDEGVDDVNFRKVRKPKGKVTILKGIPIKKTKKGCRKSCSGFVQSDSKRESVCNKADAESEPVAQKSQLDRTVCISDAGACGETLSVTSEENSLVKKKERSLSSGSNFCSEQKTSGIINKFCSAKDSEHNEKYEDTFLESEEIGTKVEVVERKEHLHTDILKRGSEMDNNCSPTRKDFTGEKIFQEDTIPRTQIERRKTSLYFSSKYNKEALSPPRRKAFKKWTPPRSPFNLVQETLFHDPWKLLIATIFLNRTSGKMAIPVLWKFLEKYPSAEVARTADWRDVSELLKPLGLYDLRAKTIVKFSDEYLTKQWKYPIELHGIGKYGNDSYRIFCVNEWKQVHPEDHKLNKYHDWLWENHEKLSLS

| SMILES | inhibition [1] [%] | inhibition [2] [%] | inhibition [3] [%] | inhibition [4] [%] | inhibition [5] [%] | inhibition [6] [%] | inhibition [7] [%] | inhibition [8] [%] | inhibition ([9]; Hit No) [%] | inhibition ([9]; Hit Yes) [%] |
| --- | --- | --- | --- | --- | --- | --- | --- | --- | --- | --- |
| O=C(O)COc1cccc(CN(Cc2ccc(-n3cccn3)cc2)S(=O)(=O)c2cccnc2)c1 | -7.47 | 0.389 | 2.46 | -3.28 | 13.1 | 5.01 | -2.75 |  |  |  |
| CC(=O)Nc1nc2c(Oc3cc(-c4ccc(C(F)(F)F)cc4)ncn3)cccc2s1 | -1.88 | 4.31 | 11.2 | -4.87 | 1.85 | -8.12 | -3.88 | -3.19 |  |  |
| NS(=O)(=O)c1cncc(-c2nc(NCc3ccccn3)c3c(-c4ccccc4)cccc3n2)c1 | -1.88 | 10.4 | 0.0701 | 7.73 | 16 | 8.92 | 14.7 | 0.783 |  |  |
| CC(C)NC(=O)c1ccc(C#Cc2ccncc2)cn1 | 5.76 | 7.51 | -5.61 | 2.68 | -1.07 | 12.7 | 8.93 |  | 2.41 |  |
| Cc1ccc(-c2ccc(F)cc2COc2ccc(CCC(=O)O)cc2)cc1 | 4.26 | 4.39 | 13.7 |  | 34.9 | 37.1 | 27.6 |  | 31.9 |  |
| COc1cc(C(=O)N(CCCc2ccccc2)Cc2ccc(CC(=O)O)cc2)cc(OC)c1C | -7.97 | -1.83 | 2.65 | -4.44 | 21.5 | 20.4 | 17.3 |  | -6.84 |  |
| O=C(Cc1ccccc1)Nc1nc2ccc(Cl)cc2c2nc(-c3ccco3)nn12 | -4.48 | -6.88 | 6.12 |  | -7.05 | 13.8 | 4.82 |  | -2.3 |  |
| CCN(Cc1ccncc1)C(=O)C(CO)c1ccccc1 (stereo unspecified) | 9.75 | -2.58 | 3.77 |  | 1.02 | 14 | 7.61 |  | -6.9 |  |
| Cc1cc(-c2ccc3c(c2)CC[C@H]3N2CC3(CCN(C(=O)Cc4cn5cc(C)sc5n4)CC3)C2)ncn1 |  | -1.18 | -2.4 | -0.24 | 2.75 | 0.491 | 6.67 | -6.41 | -7.69 |  |
| Cc1cccc(S(=O)(=O)N(C)[C@H](C)CCN2CCC(C)CC2)c1 | 6.53 | 1.79 | -2.23 | 1.46 | 3.33 | 9.55 | 1.58 | -5.83 |  |  |
| COc1cc(/C=C/C(=O)NCCn2c(C)cc3ccccc32)cc(OC)c1OC | 4.49 | -9.62 | 27.9 | -8.26 | 11.5 | 6.04 | 15.6 | -0.0662 |  |  |
| CCCc1nc2c(C)cc(-c3nc4ccccc4n3C)cc2n1Cc1ccc(-c2ccccc2C(=O)O)cc1 | 15.5 | 15.1 | -0.129 | 3.75 | 15.7 | 24.6 | 18.9 | -6.03 |  |  |
| CC(C)N(CCCCOCC(=O)NS(C)(=O)=O)c1cnc(-c2ccccc2)c(-c2ccccc2)n1 | 6.75 | 9.29 | 55.8 | -1.68 | 80.6 | 47.5 | 51 |  | 17.1 |  |
| CC(C)C[C@H](NC(=O)N1CCCCCC1)C(=O)N[C@H](Cc1cn(C)c2ccccc12)C(=O)N[C@H](Cc1ccccn1)C(=O)O | 6 | -0.0556 | -0.244 |  | -1.3 | 9.62 | 3.66 | -6.34 | -9.37 |  |
| Cc1ccc(/C(=C\CN2CCCC2)c2ccccn2)cc1 | -2.48 | 5.28 | -1.09 |  | -4.67 | 2.96 | 1.66 |  | -5.51 |  |
| COc1c(Nc2ccc(S(C)(=O)=O)nc2C)ncnc1OC1CCN(C(=O)OC(C)C)CC1 | 6 | -6.28 | -8.34 | -7.64 | -6.99 | 16.4 | -5.57 |  | -1.26 |  |
| CN(C)c1ccnc2sc3c(=O)n(N4CCCCCC4)cnc3c12 | 16 | 7.65 | 2.57 | -6.77 | -2.87 | 6.93 | 5.33 |  | 18.5 |  |
| CCc1cc2c(c(CC)n1)CCC(=O)N2Cc1ccc(-c2ccccc2-c2nnn[nH]2)cc1 | 2.26 | 13.9 | 6.08 | -8.27 | 2.76 | 24.1 | 13.7 |  | 6.16 |  |
| CC#C[C@@H](CC(=O)O)c1ccc(OCc2cccc(-c3ccc(C(F)(F)F)cc3)c2)cc1 | 0.764 | 1.13 | 28.7 |  | 48.1 | 47.2 | 41.7 | -4.48 |  | 64.3 |
| C=CC(=O)Nc1ccc2[nH]c(=O)n(C3CCN(C(=O)c4ccc(-c5nc6cc[nH]c(=O)c6cc5-c5ccccc5)cc4)CC3)c2c1 | 19.4 | -0.919 | -2.18 |  | -5.4 | 1.89 | 58.7 | -1.3 | 78.5 |  |
| CCCCC#Cc1nc(NC)c2ncn([C@@H]3O[C@H](CO)[C@@H](O)[C@H]3O)c2n1 | 5.51 | -4.5 | -9.85 | -0.13 | 0.324 | -0.235 | -7.72 |  | -7.52 |  |
| Cc1cc([C@@H](C)Nc2cccc(-c3cc(C)c(C(=O)N[C@@H](C)C(=O)O)c(C)c3)c2)ccc1Cl | -3.73 | -0.204 | 24.6 |  | 41.7 | 43.4 | 36.1 | -6.25 | 24.2 |  |
| CC(COc1ccccc1)N(CCCl)Cc1ccccc1 (stereo unspecified) | 5.01 | -3.32 | 8.43 | -8.75 | 6.02 | 20.2 | 9.17 |  |  | 41.7 |
| COc1ccc(Br)cc1S(=O)(=O)NC(=O)/C=C/c1ccccc1Cc1ccc2ccccc2c1 | 6.5 | 0.537 | -3.79 | -2.31 | 18 | 5.65 | 2.91 |  | 30.2 |  |
| Cc1c(F)cccc1NC(=O)Nc1ccc(Cl)c(S(=O)(=O)[C@H]2CCCNC2)c1O | -7.22 |  | 11.6 | -3.57 | 0.266 | -4.97 | 3.94 | -9.51 |  |  |
| COc1cccc(-c2c(C)n(Cc3c(F)cccc3C(F)(F)F)c(=O)n(C[C@H](NCCCC(=O)O)c3ccccc3)c2=O)c1F | -9.22 | -2.87 | 1.07 |  | -5.02 | 1.3 | 27.2 |  | -3.13 |  |
